Assay results taken from publication PMC11999280, “Design and screening of novel endosomal escape compounds that enhance functional delivery of oligonucleotides in vitro” (Molecular Therapy. Nucleic Acids, 2025).

Columns and labels:
Type in all cases: cell-based
[1] = system: mCherry-GAL9 expressing U2OS cells; test: GAL9 recruitment assay, U2OS; settings: calculated mean from >3 independent exp.
Method: (§1) Experiments assessing GAL9 localization as an indicator for endosomal remodeling were performed as previously described[15] using 8× stablemCherry-GAL9 expressing cell lines, SHSY5Y, U2OS, 16HBE, NCI-H358, HuH7, HepG2, HEK293, and HeLa. For mCherry-GAL9 recruitment, 3,000 or 6,500 cells/well (depending upon cell line) were seeded into 384-well CellCarrier Ultra plates 24 h prior to treatment (PerkinElmer, catalog no. 6007558). An Echo 655T acoustic dispenser (Labcyte) was used for EEE dose-response preparation by transferring to the cell plate. At assay endpoints, cells were PBS washed, 4% paraformaldehyde fixed at room temperature […] (VWR, catalog no. 9713.1000), and nuclei stained with PBS +1 μg/mL Hoechst 33342 (Thermo Fisher Scientific, catalog no. H21492).
(§2) Imaging was performed using a spinning-disk confocal microscope (Yokogawa: CV8000) with a ×20w objective (numerical aperture 1.0). Cells and mCherry-GAL9 structure identification and quantification were done using Columbus image-analysis software (PerkinElmer version 2.9.0). Data processing was done using Spotfire (Tibco version 11.4) and Prism (GraphPad version 9.1.0). Image panels were assembled using the FigureJ plugin for FIJI.[43] All mCherry-GAL9 experiments were performed three times (N = 3) with duplicated wells per treatment (n = 2).

[2] = system: mCherry-GAL9 expressing HepG2 cells; test: GAL9 recruitment assay, HepG2; settings: calculated mean from >3 independent exp.
Method: as §1, §2

[3] = system: HeLa_Luc705 cells (pLuc/705 splice-switching reporter); test: Functional 705-SSO delivery, luciferase splice-switching assay; settings: mean from >3 independent experiments
Text: Therefore, next, we functionally screened the SSO delivery in the HeLa_Luc705 reporter cell line. HeLa_Luc705 carries a pLuc/705 splice-switching reporter luciferase gene interrupted by a mutated β-globin intron, which creates a preferentially used cryptic 5′ splice site leading to aberrant splicing. Functional SSO delivery masks the cryptic site, redirecting the splicing machinery to the right splicing site, allowing the measurement of luciferase expression (Figure S1).[25]^,[26]^,[27]^,[28] We used SSO transfection with LF2000 as transfection control and the previously published endosomal escape enhancer CMP05 (here, EEE2) as positive control.[15]
For the assessment of functional SSO therapeutics, a HeLa_Luc705 cell line was grown in DMEM media supplemented with 10% fetal bovine serum (FBS). For most treatments, 10,000 cells/well were seeded in a 96-well plate, 24 h pre-incubated with 1- to 2-μM oligonucleotide, and then treated at the described EEE concentration. At 24 h post-treatment, cells were PBS rinsed and collected for further analysis (treatments and incubation times changed accordingly to the experiment design). Luciferase readout was performed as previously described,[15] using a GloMax 96-well plate microplate luminometer (Promega) immediately after adding 30 μL auto-injected luciferin substrate (Promega Firefly Luciferase Assay System; Thermo Scientific, catalog no. 16174) in a white-walled 96-well plate containing 30 μL 0.1% Triton X-100 (Sigma-Aldrich) cell lysed. Photon exposure time and delay were set to 10 and 2 s after injection. LF2000 was used as the transfection reagent control (Thermo Scientific, catalog no. 11668019). For EEE experiments using 1 or 2 μM SSOs, the control was prepared using lipofection with 100–200 nM SSO; this is to avoid complex induced cell toxicity.
705-SSO was purchased from and synthesized by Integrated DNA Technologies. The 705-SSO sequence was previously published, containing 2′-O-methylated bases and only phosphorothioate-saturated backbone linkages were included.[15] The 705-SSO was high-performance liquid chromatography purified, shipped, and stored in IDTE buffer (10 mM Tris, 0.1 mM EDTA).

[4] = system: mCherry-GAL9 expressing HEK293 cells; test: GAL9 recruitment assay, HEK293; settings: calculated mean from >3 independent exp.
Method: as §1, §2

[5] = system: mCherry-GAL9 expressing SHSY5Y cells; test: GAL9 recruitment assay, SHSY5Y; settings: calculated mean from >3 independent exp.
Method: as §1, §2

[6] = system: mCherry-GAL9 expressing 16HBE cells; test: GAL9 recruitment assay, 16HBE; settings: calculated mean from >3 independent exp.
Method: as §1, §2

[7] = system: mCherry-GAL9 expressing HuH7 cells; test: GAL9 recruitment assay, HuH7; settings: calculated mean from >3 independent exp.
Method: as §1, §2

[8] = system: mCherry-GAL9 expressing NCI-H358 cells; test: GAL9 recruitment assay, NCI-H358; settings: calculated mean from >3 independent exp.
Method: as §1, §2

[9] = system: mCherry-GAL9 expressing HeLa cells; test: GAL9 recruitment assay, HeLa; settings: calculated mean from >3 independent exp.
Method: as §1, §2

[10] = HeLa-Luc705 + 2 µM SSO, EEE 2.5 - 3 µM

COc1nn(C2CCN(CCCO)CC2)cc1Nc1ncc(F)c(-n2ccc3c(C#N)cccc32)n1 [EEE12]
Gal9 response compared to reference ([1]; EEE 0.31 µM): 0.013
Gal9 response compared to reference ([1]; EEE 0.62 µM): 0.017
Gal9 response compared to reference ([1]; EEE 1.25 µM): 0.057
Gal9 response compared to reference ([1]; EEE 2.5 µM): 0.299
Gal9 response compared to reference ([1]; EEE 5 µM): 0.511
Gal9 response compared to reference ([1]; EEE 10 µM): 0.588
Gal9 response compared to reference ([2]; EEE 0.31 µM): 0.008
Gal9 response compared to reference ([2]; EEE 0.62 µM): 0.010
Gal9 response compared to reference ([2]; EEE 1.25 µM): 0.038
Gal9 response compared to reference ([2]; EEE 2.5 µM): 0.146
Gal9 response compared to reference ([2]; EEE 5 µM): 0.517
Gal9 response compared to reference ([2]; EEE 10 µM): 0.574
Luciferase expression compared to reference [3, 10]: 1.720
Gal9 response compared to reference ([4]; EEE 0.31 µM): 0.023
Gal9 response compared to reference ([4]; EEE 0.62 µM): 0.122
Gal9 response compared to reference ([4]; EEE 1.25 µM): 0.432
Gal9 response compared to reference ([4]; EEE 2.5 µM): 0.716
Gal9 response compared to reference ([4]; EEE 5 µM): 0.604
Gal9 response compared to reference ([4]; EEE 10 µM): 0.273
Gal9 response compared to reference ([5]; EEE 0.31 µM): 0.014
Gal9 response compared to reference ([5]; EEE 0.62 µM): 0.271
Gal9 response compared to reference ([5]; EEE 1.25 µM): 0.742
Gal9 response compared to reference ([5]; EEE 2.5 µM): 0.706
Gal9 response compared to reference ([5]; EEE 5 µM): 0.575
Gal9 response compared to reference ([5]; EEE 10 µM): 0.177
Gal9 response compared to reference ([6]; EEE 0.31 µM): 0.014
Gal9 response compared to reference ([6]; EEE 0.62 µM): 0.063
Gal9 response compared to reference ([6]; EEE 1.25 µM): 0.180
Gal9 response compared to reference ([6]; EEE 2.5 µM): 0.658
Gal9 response compared to reference ([6]; EEE 5 µM): 0.681
Gal9 response compared to reference ([6]; EEE 10 µM): 0.421
Gal9 response compared to reference ([7]; EEE 0.31 µM): 0.014
Gal9 response compared to reference ([7]; EEE 0.62 µM): 0.031
Gal9 response compared to reference ([7]; EEE 1.25 µM): 0.143
Gal9 response compared to reference ([7]; EEE 2.5 µM): 0.357
Gal9 response compared to reference ([7]; EEE 5 µM): 0.232
Gal9 response compared to reference ([7]; EEE 10 µM): 0.103
Gal9 response compared to reference ([8]; EEE 0.31 µM): 0.018
Gal9 response compared to reference ([8]; EEE 0.62 µM): 0.032
Gal9 response compared to reference ([8]; EEE 1.25 µM): 0.128
Gal9 response compared to reference ([8]; EEE 2.5 µM): 0.574
Gal9 response compared to reference ([8]; EEE 5 µM): 0.607
Gal9 response compared to reference ([8]; EEE 10 µM): 0.422
Gal9 response compared to reference ([9]; EEE 0.31 µM): 0.005
Gal9 response compared to reference ([9]; EEE 0.62 µM): 0.015
Gal9 response compared to reference ([9]; EEE 1.25 µM): 0.195
Gal9 response compared to reference ([9]; EEE 2.5 µM): 0.550
Gal9 response compared to reference ([9]; EEE 5 µM): 0.394
Gal9 response compared to reference ([9]; EEE 10 µM): 0.118

COc1nn(C2CCN(C)CC2)cc1Nc1ncc(Cl)c(-n2ccc3c(C#N)cccc32)n1 [EEE17]
Gal9 response compared to reference ([1]; EEE 0.31 µM): 0.012
Gal9 response compared to reference ([1]; EEE 0.62 µM): 0.011
Gal9 response compared to reference ([1]; EEE 1.25 µM): 0.013
Gal9 response compared to reference ([1]; EEE 2.5 µM): 0.015
Gal9 response compared to reference ([1]; EEE 5 µM): 0.021
Gal9 response compared to reference ([1]; EEE 10 µM): 0.155
Gal9 response compared to reference ([2]; EEE 0.31 µM): 0.009
Gal9 response compared to reference ([2]; EEE 0.62 µM): 0.008
Gal9 response compared to reference ([2]; EEE 1.25 µM): 0.008
Gal9 response compared to reference ([2]; EEE 2.5 µM): 0.011
Gal9 response compared to reference ([2]; EEE 5 µM): 0.010
Gal9 response compared to reference ([2]; EEE 10 µM): 0.030
Luciferase expression compared to reference [3, 10]: 0.752
Gal9 response compared to reference ([4]; EEE 0.31 µM): 0.023
Gal9 response compared to reference ([4]; EEE 0.62 µM): 0.022
Gal9 response compared to reference ([4]; EEE 1.25 µM): 0.019
Gal9 response compared to reference ([4]; EEE 2.5 µM): 0.019
Gal9 response compared to reference ([4]; EEE 5 µM): 0.096
Gal9 response compared to reference ([4]; EEE 10 µM): 0.437
Gal9 response compared to reference ([5]; EEE 0.31 µM): 0.014
Gal9 response compared to reference ([5]; EEE 0.62 µM): 0.013
Gal9 response compared to reference ([5]; EEE 1.25 µM): 0.012
Gal9 response compared to reference ([5]; EEE 2.5 µM): 0.014
Gal9 response compared to reference ([5]; EEE 5 µM): 0.176
Gal9 response compared to reference ([5]; EEE 10 µM): 0.610
Gal9 response compared to reference ([6]; EEE 0.31 µM): 0.008
Gal9 response compared to reference ([6]; EEE 0.62 µM): 0.010
Gal9 response compared to reference ([6]; EEE 1.25 µM): 0.008
Gal9 response compared to reference ([6]; EEE 2.5 µM): 0.010
Gal9 response compared to reference ([6]; EEE 5 µM): 0.048
Gal9 response compared to reference ([6]; EEE 10 µM): 0.488
Gal9 response compared to reference ([7]; EEE 0.31 µM): 0.007
Gal9 response compared to reference ([7]; EEE 0.62 µM): 0.007
Gal9 response compared to reference ([7]; EEE 1.25 µM): 0.010
Gal9 response compared to reference ([7]; EEE 2.5 µM): 0.017
Gal9 response compared to reference ([7]; EEE 5 µM): 0.021
Gal9 response compared to reference ([7]; EEE 10 µM): 0.132
Gal9 response compared to reference ([8]; EEE 0.31 µM): 0.016
Gal9 response compared to reference ([8]; EEE 0.62 µM): 0.019
Gal9 response compared to reference ([8]; EEE 1.25 µM): 0.014
Gal9 response compared to reference ([8]; EEE 2.5 µM): 0.018
Gal9 response compared to reference ([8]; EEE 5 µM): 0.028
Gal9 response compared to reference ([8]; EEE 10 µM): 0.303
Gal9 response compared to reference ([9]; EEE 0.31 µM): 0.005
Gal9 response compared to reference ([9]; EEE 0.62 µM): 0.004
Gal9 response compared to reference ([9]; EEE 1.25 µM): 0.004
Gal9 response compared to reference ([9]; EEE 2.5 µM): 0.004
Gal9 response compared to reference ([9]; EEE 5 µM): 0.012
Gal9 response compared to reference ([9]; EEE 10 µM): 0.201

COc1nn(C2CCNCC2C)cc1Nc1ncc(F)c(-n2ccc3c(C#N)cccc32)n1 (centres unmarked) [EEE35]
Luciferase expression compared to reference ([3]; HeLa-Luc705 + 1 µM SSO, EEE 0.5 µM): 1.095
Luciferase expression compared to reference ([3]; HeLa-Luc705 + 1 µM SSO, EEE 2 µM): 1.804
Luciferase expression compared to reference ([3]; HeLa-Luc705 + 1 µM SSO, EEE 4 µM): 4.870
Luciferase expression compared to reference ([3]; HeLa-Luc705 + 1 µM SSO, EEE 5 µM): 9.588
Luciferase expression compared to reference ([3]; HeLa-Luc705 + 1 µM SSO, EEE 1-1.25 µM): 1.101
Luciferase expression compared to reference ([3]; HeLa-Luc705 + 1 µM SSO, EEE 2.5 - 3 µM): 2.812
